Experimental data taken from patent publication US20220331301A1, “CYSTIC FIBROSIS TRANSMEMBRANE CONDUCTANCE REGULATOR MODULATORS FOR TREATING AUTOSOMAL RESESSIVE POLYCYSTIC KIDNEY DISEASE” (The Johns Hopkins University, priority 2021, published 2022).
Entries after “also recorded” stand apart in the source; their conditions may differ.

Experiments:
CFTR = assay: Western blot of CFTR protein expression in cholangiocytes; format: cell-based, mice; conditions: Pkhd1del4/del4 cholangiocytes
Source text: Please note the reduction of CFTR protein in Pkhd1del4/del4 cholangiocytes and the increase following VX-809 treatment;

HSP27, 70, 90 and Aha1 = assay: Western blot of chaperone expression in cholangiocytes; format: cell-based, mice; conditions: Pkhd1del4/del4 cholangiocytes
Experimental: FIG. 9A, FIG. 9B, FIG. 9C, FIG. 9D and FIG. 9E show chaperone expression is altered Pkhd1del4/del4 cholangiocytes. (FIG. 9A) Representative Western blot images of HSP27, 70, 90 and Aha1 in WT and Pkhd1del4/del4 cholangiocytes treated with VX-809 as described in previous figures. (FIG. 9B, FIG. 9C, FIG. 9D and FIG. 9E) Columns represent averages±standard errors of Hsp 27, Aha1, HSP70 and HSP90 expression. Data were analyzed by non-parametric t-test. n=4 for each treated and control groups. **P. Please note the large decrease in Hsp27 and increases in Aha1, HSP70 and Hsp 90 in Pkhd1del4/del4 cholangiocytes compared to WT.
We have previously shown that CFTR-based correctors rescue ΔF508-CFTR by altering the proteostatic network of ER quality control proteins (HSPs) involved in its degradation. Lopes-Pacheco et al., 2015. […] To continue this line of investigation, we measured the steady-state levels of HSPs in Pkhd1del4/del4 cholangiocytes (FIG. 9). In the mutant cholangiocytes, HSP27 was reduced by half whereas, HSP70 was increased by 8 fold, HSP90 was by 2-fold and Aha1 by 2.5 fold.

Pkhd1 kidney cells = assay: Fura-2 Ca2+ release in renal ARPKD cell line; format: cell-based, human; conditions: VX-809 (10 μM) for 16 hours
Experimental: FIG. 16A, FIG. 16B, and FIG. 16C show Ca^2+ release in a renal ARPKD cell line treated with VX-809. Intracellular Ca^2+ (F340/F380) levels were measured by ratiometric Fura-2 AM analysis of WT and Pkhd1 kidney cells treated with VX-809 (10 μM) for 16 hours. […] Amplitude was measured as the […] base to peak Δf/f. Asterisk indicates significance between the two groups. Significance between the two groups was analyzed using Student's t-test, n=5-6. ****P<0.0001.
The cells were loaded with the cell-permeant acetoxymethyl (AM) ester of the calcium indicator fura-2 (fura-2/AM) at 37° C. for 90 min. Measurements were made on a Zeiss inverted microscope equipped with a Sutter Lambda 10-2 controller and filter wheel assembly. A Zeiss FluorArc mercury lamp was used to excite the cells at 340 and 380 nm, and the emission response was measured at 510 nm. Cell fluorescence was measured in response to excitation for 1000 ms at 340 nm and 200 ms at 380 nm once every 4 s. Image acquisition, image analysis, and filter wheel control were performed with IPLab software (see Yanda et al., 2019b). […]

Pkhd1^del3-4/del3-4 mice = assay: Ki67 proliferation in bile duct epithelia of Pkhd1^del3-4/del3-4 mice; format: in vivo; conditions: 30 mg/kg every other day for 30 days
Source text: FIG. 12A and FIG. 12B show Ki67 expression in WT and Pkhd1^del3-4/del3-4 mice bile duct epithelia. […] Merged red and green channels are shown, wherein yellow indicates colocalization; the white square indicates the area of enlargement shown. FIG. 12B summarizes the Pearson's Correlation coefficient R for the images of FIG. 12A. The graph compares the percentage of cells positive for Ki67. Number of cells analyzed for WT, n=196, Pkhd1^del3-4/del3-4, n=324, Pkhd1^del3-4/del3-4+VX-809, n=344 Samples were incubated with 5 μg/ml primary antibody Ki67 (Abcam #ab15580) and CK19 (Invitrogen #MA5-15884) in blocking buffer for 16 hours at 4° C. Goat anti-rabbit Alexa Fluor 594 and anti-mouse Alexa Flour 488 conjugated secondary antibodies were used at a 1/250 dilution for 1 hour to label the proteins. Scale bar is 10 μm. Bars represent the means±SEM. […]
Experiments were conducted during the development of embodiments of the technology described herein to test if CFTR correctors affect proliferation of cholangiocytes. In these experiments, proliferation in the livers of Pkhd1^del3-4/del3-4 cholangiocytes in bile duct epithelia was measured using confocal microscopy and the proliferation marker Ki67. […]

PC1 null mice = conditions: shown previously, Yanda et al., 2018; cited from earlier work
CK7 = CK7 expression in cholangiocytes; format: cell-based, mice; conditions: Pkhd1^del4/del4 cells
Source text: (Methods and cells provided by the Yale O'Brian Center) To create the cholangiocyte cultures PKhd1del/4/del4, Garcia-Gonzalez et al., 2007, animals were crossed with mice transgenic for the Sv40 large T Antigen (strain name SV40 T-antigen JAX strain #002233). Segments of intrahepatic bile ducts were microdissected from livers perfused via the portal vein with molten agarose containing toluidine blue to mark the veins. The liver parenchyma was stripped until the biliary tree was identified and the bile duct units were seeded onto rat type I collagen coated plates. Cells were cultured under non-permissive conditions in the following medium: DMEM/F12 with 5% fetal bovine serum, 10 μL/mL insulin-transferrin selenium, 3.4 μg/mL triiodothyronine, 50,000 U penicillin/streptomycin under humidified conditions at 37° C. in 5% CO2. After one week, the cells were cultured under permissive conditions in the presence of 10 U of interferon-γ at 33° C. in 5% CO2. When confluent, cells were passaged by digesting the collagen slab below the cells (60 min; 37° C.; DMEM/F12 with 2 mg/mL dispase and 1 mg/mL collagenase type 11), then washed twice in PBS and plated onto collagen coated support systems. Clonal cell lines were generated by single cell isolation. Cells were differentiated for 10 days at 37° C. without interferon-γ for experimental use.

For lumacaftor [VX-809], the CFTR protein level (CFTR) was “trends back to normal; also recorded: increase”, the Aha1 level (HSP27, 70, 90 and Aha1) was “reduced the levels; also recorded: correction toward WT values” and the HSP70 level (HSP27, 70, 90 and Aha1) was “reduced the levels; also recorded: correction toward WT values”. The HSP90 level (HSP27, 70, 90 and Aha1) was “reduced the levels; also recorded: correction toward WT values”, the “resting Ca^2+” value (Pkhd1 kidney cells) was “not affected” and the “thapsigargin-induced ER Ca^2+ release” value (Pkhd1 kidney cells; thapsigargin (4 μM)) was “dramatically reduced; also recorded: significantly lowered”. For the same substance, the “Ki67 colocalization with CK19 in cholangiocytes (proliferation), Pearson's Correlation coefficient R” value (Pkhd1^del3-4/del3-4 mice) was “reduced proliferation; also recorded: reduces colocalization”, the “percent cells positive for Ki67” value (Pkhd1^del3-4/del3-4 mice) was “levels were reduced” and the “cysts in PC1 null mice” value (PC1 null mice) was “can reduce cysts”. For the same substance, the CK7 expression (CK7) was “increased”.
